Test systems include CAKI-1 renal; SK-OV-3 ovarian; SNB-19 CNS; MOLT-4 leukemia; MALME-3M melanoma; HOP-92 NSCLC; RXF 393 renal; ACHN renal; KM12 colon; SR leukemia.
Common to all, as to assay: NCI-60 cell line screen, 48 h

SMILES strings stand for the structures.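 Dose response: 5 concentrations. Exposure: 48 h. Format: 96-well plates. Endpoint: linear interpolation; highest concentration if not reached. GI50 marks 50% less growth. TGI denotes the concentration required for complete inhibition of growth.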 Some results are limits rather than exact numbers.

As to `Cc1c(/C=N/N(C)C)oc2c1cc(O)c1ncccc12`, the TGI in the assay with CAKI-1 renal is 22.4 µM; with SK-OV-3 ovarian, 71.7 µM; with SNB-19 CNS, above 100 µM; with MOLT-4 leukemia, 16.8 µM; in the assay on MALME-3M melanoma it was 84.5 µM; in the assay with HOP-92 NSCLC, 76.8 µM. Besides, the TGI in the assay on RXF 393 renal was 58.6 µM; with ACHN renal it was above 100 µM; with KM12 colon, above 100 µM; with SR leukemia it was 40.4 µM.

Take `Cc1cc(N2CCN(C)CC2)n2nc(-c3ccc(Cl)cc3)nc2n1`: the TGI in the assay on CAKI-1 renal, in the assay with SK-OV-3 ovarian, in the assay with SNB-19 CNS, with MOLT-4 leukemia, with MALME-3M melanoma and in the assay on HOP-92 NSCLC was above 100 µM each time. Also, the TGI with RXF 393 renal, in the assay on ACHN renal, in the assay on KM12 colon and in the assay on SR leukemia was above 100 µM in each case.

With `O=C1/C=C/[C@@H](O)[C@@H]2C[C@@H](O)C[C@H]2/C=C/CCC[C@H](C(F)(F)F)O1`, the GI50 is 0.178 µM in the assay on CAKI-1 renal; 16.4 µM in the assay with SK-OV-3 ovarian; 6.98 µM in the assay on SNB-19 CNS; 0.174 µM in the assay with MOLT-4 leukemia; 0.0437 µM with MALME-3M melanoma; 0.126 µM with HOP-92 NSCLC. In addition, the GI50 in the assay on RXF 393 renal was 0.0864 µM; with ACHN renal, 0.197 µM; with KM12 colon it was 1.54 µM; in the assay on SR leukemia, 0.199 µM. The TGI in the assay with CAKI-1 renal was 27.4 µM; in the assay on SK-OV-3 ovarian, above 100 µM; in the assay with SNB-19 CNS, above 100 µM; with MOLT-4 leukemia it was 0.625 µM; with MALME-3M melanoma, 0.292 µM; in the assay with HOP-92 NSCLC, 0.568 µM. The TGI in the assay on RXF 393 renal came out at 38.7 µM; in the assay with KM12 colon, 16.2 µM; in the assay with SR leukemia it was 0.591 µM.

In the case of `Cn1nc(-c2ccccc2)c2c(/C=C/c3ccccc3)onc2c1=O`, the TGI in the assay with CAKI-1 renal was above 100 µM; in the assay with SK-OV-3 ovarian, above 100 µM; in the assay with SNB-19 CNS it was above 100 µM; in the assay with MOLT-4 leukemia it was above 100 µM; in the assay with MALME-3M melanoma, above 100 µM; in the assay on HOP-92 NSCLC it was 98.2 µM. The TGI in the assay with RXF 393 renal, in the assay with ACHN renal, in the assay with KM12 colon and in the assay with SR leukemia was above 100 µM each time.

Regarding `COC(=O)[C@H]1CCCN1C(=O)[C@H]1CCCN1C(=O)[C@H](Cc1c[nH]c2ccccc12)NC(=S)Nc1cc(C(F)(F)F)cc(C(F)(F)F)c1`, the GI50 was 15 µM in the assay with CAKI-1 renal; 92.7 µM in the assay on SK-OV-3 ovarian; 9.49 µM with SNB-19 CNS; 4.88 µM with MOLT-4 leukemia; 14.9 µM in the assay on MALME-3M melanoma; 1.7 µM in the assay with HOP-92 NSCLC. The GI50 was 1.84 µM in the assay on RXF 393 renal, 4.12 µM in the assay on ACHN renal, 4.47 µM in the assay with KM12 colon and 3.67 µM in the assay with SR leukemia. The TGI with CAKI-1 renal was above 100 µM; in the assay with SK-OV-3 ovarian, above 100 µM; in the assay on SNB-19 CNS, above 100 µM; in the assay on MOLT-4 leukemia it was above 100 µM; in the assay on MALME-3M melanoma it was above 100 µM; in the assay on HOP-92 NSCLC, 6.97 µM. In addition, the TGI with RXF 393 renal is 4.71 µM; in the assay with ACHN renal, above 100 µM; with KM12 colon it was above 100 µM; in the assay with SR leukemia, above 100 µM.

As for `COc1ccc(N(C)c2nc(N)nc3sc4c(c23)CCCC4)cc1`, the GI50 is below 0.0137 µM in the assay with CAKI-1 renal; below 0.013 µM with SK-OV-3 ovarian; below 0.01 µM in the assay with SNB-19 CNS; below 0.0125 µM in the assay on MOLT-4 leukemia; below 0.0125 µM in the assay on MALME-3M melanoma; below 0.0187 µM in the assay with HOP-92 NSCLC. Also, the GI50 in the assay with RXF 393 renal, in the assay on ACHN renal, in the assay with KM12 colon and in the assay on SR leukemia was below 0.01 µM in each case. Moreover, the TGI in the assay on CAKI-1 renal was 15.4 µM; with SK-OV-3 ovarian, 14.2 µM; in the assay on SNB-19 CNS, 16.9 µM; in the assay on MOLT-4 leukemia, 28 µM; in the assay with MALME-3M melanoma, 18.9 µM; with HOP-92 NSCLC it was 6.81 µM. The TGI with RXF 393 renal stood at 20.7 µM; in the assay on ACHN renal, 14.6 µM; in the assay on KM12 colon, 12 µM; in the assay with SR leukemia it was 11 µM.

Consider `CN(CC(=O)N(Cc1ccc(C2CCCCC2)cc1)c1ccc(C(=O)O)cc1)S(=O)(=O)c1c(F)c(F)c(F)c(F)c1F`, for which the GI50 in the assay with CAKI-1 renal was 1.93 µM; with SK-OV-3 ovarian it was 1.93 µM; in the assay on MOLT-4 leukemia, 2.42 µM; in the assay with MALME-3M melanoma it was 1.7 µM; in the assay on HOP-92 NSCLC, 2.11 µM; in the assay with RXF 393 renal it was 1.93 µM. Further, the results for the GI50 with ACHN renal, in the assay on KM12 colon and in the assay on SR leukemia were 1.74 µM, 2.94 µM and 2.64 µM, respectively. The TGI in the assay on CAKI-1 renal was determined as 4.31 µM; in the assay with SK-OV-3 ovarian, 3.8 µM; in the assay with MOLT-4 leukemia, 6.14 µM; with MALME-3M melanoma, 3.64 µM; in the assay on HOP-92 NSCLC it was 4.02 µM; in the assay with RXF 393 renal, 3.37 µM. In addition, the TGI worked out at 3.15 µM with ACHN renal, 9.01 µM with KM12 colon and 7.89 µM with SR leukemia.

With `CN(C)C(=S)SCC(=O)Nc1ccccc1`, the TGI with CAKI-1 renal, in the assay with SK-OV-3 ovarian, in the assay with MOLT-4 leukemia, in the assay on MALME-3M melanoma, in the assay with HOP-92 NSCLC and in the assay with RXF 393 renal was above 100 µM each time. The TGI with ACHN renal, in the assay on KM12 colon and with SR leukemia was above 100 µM each time.

As to `COC(=O)CSSCc1ccc([N+](=O)[O-])cc1`, the TGI in the assay on CAKI-1 renal is 8.09 µM; in the assay with SK-OV-3 ovarian it was 46.8 µM; in the assay with SNB-19 CNS, 77.2 µM; with MOLT-4 leukemia, above 100 µM; with MALME-3M melanoma, 67.7 µM; in the assay on HOP-92 NSCLC, above 100 µM. For the same compound, the TGI in the assay on RXF 393 renal came to 36.2 µM; in the assay on ACHN renal it was 36.2 µM; with KM12 colon, 38.9 µM; in the assay on SR leukemia, 70.2 µM.

The values are drawn from PubChem BioAssay (NCI).
